Assay results reported in patent US10072005B2, “4-azaindole derivatives” (EISAI R&D MANAGEMENT CO., LTD., priority 2013, dated 2018).

Columns and labels:
mAChR M4 = mAChR M4 (Homo sapiens (Human), UniProt P08173); assay: In vitro cellular calcium flux assay, PAM, NAM and agonist modes, mAChR M4; format: cell-based
Protocol: (§1) Baby hamster kidney cells stably expressing human or rat mAChR M1 to M5 were utilised for primary and selectivity profiling activities. mAChR M2 and M4 cell lines also stably expressed the chimeric Gαqi5 G-protein.
(§2) Human mAChR M1, M3, M5 and rat M1 cells were grown in low glucose Dulbecco's Modified Eagle's Medium (DMEM) medium plus heat inactivated 10% fetal bovine serum (HI FBS) and 500 μg/ml hygromycin B^1. Human mAChR M2 and M4 cells were maintained as above with^2 the addition of 500 μg/ml G418 to the media. Cells were maintained in culture at 37° C./5% CO2 and passaged twice weekly by treatment with 0.05% Trypsin/EDTA detachment solution, centrifugation (200 g, 5 min) and re-suspension in fresh media. Following cell expansion, cells were cryopreserved at −80° C. by treatment with 0.05% Trypsin/EDTA detachment solution, centrifugation (200 g, 5 min) and re-suspension of the pellet in freezing media (90% HI FBS/10% DMSO^3) at 15E6 cells/ml^4.
(§3) Prior to assaying, cells were prepared by thawing at 37° C. in a water bath, centrifugation (200 g, 5 min) and re-suspension of the pellet in fresh media. 15000 cells per well were seeded in black, clear bottomed 384-well Greiner Bio-One plates in plating medium (DMEM/10% HI FBS) and incubated overnight at 37 C/5% CO2.
(§4) On the day of the assay, media was removed from each well and replaced with 50 μl^5 assay buffer (HBSS with 20 mM HEPES and 2.5 mM Probenecid) containing the calcium indicator, Calcium 4 (Molecular Devices). Cells were then incubated at 37° C./5% CO2 for 30 min and at room temperature.
(§5) Compound preparation was carried out by generation of 11-point, 1 in 3 serial dilution concentration response curves in 100% DMSO. Compound was then diluted 1 in 65^6 with assay buffer (HBSS with 20 mM HEPES and 2.5 mM Probenecid) prior to the addition of 10 ul^7 to the cells using a Tetra fluorometric imaging plate reader (Molecular Devices)^8. Compound driven increases in intracellular calcium flux was measured as an increase in fluorescence (494Ex, 516Em)^9.
(§6) Positive allosteric modulator pEC50 values and antagonist pIC50 values for each compound were then determined. […] The points of modification and the alternate reagents, concentrations or equipment employed in these examples were: ^1200 μg/ml hygromycin B; ^2G418 not added; ^3CELLBANKER 1; ^410E6; ^5 40 μl; ^6 1 in 99; ^7 20 μl; ^8FDSS6000 (Hamamatsu Photonics); ^9(480Ex, 540Em); ^10Spotfire (TIBCO).
(§7) Certain compounds were tested in PAM, NAM and agonist modes against mAChR M2, M3, M4 and M5.

mAChR M1 = mAChR M1 (Homo sapiens, UniProt P11229); assay: In vitro cellular calcium flux assay, positive allosteric modulation of mAChR M1; format: cell-based; conditions: BHK cells expressing mAChR M1; EC20 carbachol; Examples 76-80 and 82-89 slightly modified procedure
Sequence of mAChR M1 (P11229 whole entry, looked up): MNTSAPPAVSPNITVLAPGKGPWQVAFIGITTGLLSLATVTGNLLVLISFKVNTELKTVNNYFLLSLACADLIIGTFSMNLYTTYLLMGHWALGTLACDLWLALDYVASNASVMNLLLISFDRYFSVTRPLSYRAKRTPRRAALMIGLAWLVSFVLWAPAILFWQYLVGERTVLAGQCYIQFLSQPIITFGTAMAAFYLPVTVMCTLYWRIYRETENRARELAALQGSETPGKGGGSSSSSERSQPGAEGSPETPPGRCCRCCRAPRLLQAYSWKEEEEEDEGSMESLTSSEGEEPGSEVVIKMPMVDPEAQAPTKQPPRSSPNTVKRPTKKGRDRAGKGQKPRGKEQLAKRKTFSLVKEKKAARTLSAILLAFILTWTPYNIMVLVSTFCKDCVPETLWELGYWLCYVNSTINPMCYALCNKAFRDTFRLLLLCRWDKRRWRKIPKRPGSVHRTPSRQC
Outline: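 Baby hamster kidney cells stably expressing human mAChR M1, loaded with Calcium 4 dye in HBSS/20 mM HEPES/2.5 mM probenecid for 30 min at 37 °C. An 11-point 1-in-3 compound dilution series was added and calcium rise read as fluorescence; positive allosteric modulator pEC50 and antagonist pIC50 derived.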

mAChR M5 = mAChR M5 (Homo sapiens (Human), UniProt P08912); assay: In vitro cellular calcium flux assay, PAM, NAM and agonist modes, mAChR M5; format: cell-based
Sequence of mAChR M5 (P08912 whole entry): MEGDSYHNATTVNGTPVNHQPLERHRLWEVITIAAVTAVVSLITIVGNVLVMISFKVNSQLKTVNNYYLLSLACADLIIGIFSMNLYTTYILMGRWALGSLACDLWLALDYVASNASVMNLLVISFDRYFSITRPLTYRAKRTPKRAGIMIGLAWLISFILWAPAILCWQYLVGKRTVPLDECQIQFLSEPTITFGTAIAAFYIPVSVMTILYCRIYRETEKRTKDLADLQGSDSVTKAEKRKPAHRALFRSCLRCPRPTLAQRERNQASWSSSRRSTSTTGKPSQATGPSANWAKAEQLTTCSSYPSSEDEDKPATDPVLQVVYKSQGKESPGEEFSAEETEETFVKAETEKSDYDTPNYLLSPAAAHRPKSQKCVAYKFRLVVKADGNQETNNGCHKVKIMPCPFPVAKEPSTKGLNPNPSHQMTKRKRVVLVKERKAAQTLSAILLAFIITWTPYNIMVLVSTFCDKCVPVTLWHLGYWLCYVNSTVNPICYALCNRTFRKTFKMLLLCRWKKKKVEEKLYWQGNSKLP
Protocol: as §1, §2, §3, §4, §5, §6, §7

male Long-Evans rats = assay: Novel Object Recognition Test in Scopolamine-Induced Cognitive Deficit Condition; format: in vivo; conditions: rat
Protocol: For 2 days before starting the test, 6-week old male Long-Evans rats were acclimated to experimental operations such as administration and a test device (that is, a black or gray plastic cage with a width of 40 cm, a depth of 30 cm and a height of 45 cm). Each test compound was dissolved in a 0.5% methylcellulose in water to be orally administered at dosage ranges between 0.01 and 0.1 mg/kg. Thirty minutes after the test compound administration, scopolamine hydrobromide dissolved in a saline was intraperitoneally administered at a 0.7 mg/kg dose, so as to induce cognitive impairment. After another 30 minutes, each rat was acclimated in the test device for 3 minutes, and thereafter, two blocks in the same shape were put in the test device as acquisition trial, and exploring time for each block was measured for 5 minutes. Two hours after the acquisition trial, the rat was acclimated in the test device for 3 minutes, and thereafter, the same block as those used in the acquisition trial and a new block in a different shape were put in the cage for retention trial. The exploring time for each block was measured for 3 minutes, and a ratio of the exploring time for the newly used block to the sum of the exploring times for the respective blocks was calculated as a discrimination index (novel object exploration time/total object exploration time in retention trial×100). […]
Each discrimination index was shown as an average and a standard error. The statistical significance between the vehicle group and the scopolamine alone group was analyzed by the independent t-test. The statistical significance between the scopolamine alone group and each sample group was analyzed by one-way analysis of variance and then by Dunnett's multiple comparison test. […]

Sequence of mAChR M4 (P08173 whole entry): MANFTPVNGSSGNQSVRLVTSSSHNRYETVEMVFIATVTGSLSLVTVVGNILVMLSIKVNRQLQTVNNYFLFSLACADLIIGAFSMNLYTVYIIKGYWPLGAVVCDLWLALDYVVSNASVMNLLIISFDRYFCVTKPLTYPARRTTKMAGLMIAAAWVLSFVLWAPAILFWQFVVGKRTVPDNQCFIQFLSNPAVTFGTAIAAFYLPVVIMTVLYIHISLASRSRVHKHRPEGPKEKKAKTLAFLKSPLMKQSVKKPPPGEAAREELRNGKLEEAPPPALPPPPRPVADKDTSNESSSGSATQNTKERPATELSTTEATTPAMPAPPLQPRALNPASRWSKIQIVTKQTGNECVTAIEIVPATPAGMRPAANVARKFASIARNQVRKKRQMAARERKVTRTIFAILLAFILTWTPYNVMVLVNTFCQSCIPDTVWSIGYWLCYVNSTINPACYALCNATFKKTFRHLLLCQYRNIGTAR

Q: What does the source list for O=C(N[C@H]1CCCC[C@@H]1O)c1cn(Cc2ccc(F)cc2)c2cccnc12 [Example 5, 1-(4-Fluorobenzyl)-N-((1S,2S)-2-hydroxycyclohexyl)-1H-pyrrolo[3,2-b]pyridine-3-carboxamide]?
A: EC50 (mAChR M4): > 10 µM; pEC50 for positive allosteric modulation (mAChR M1): 6.9; EC50 (mAChR M5): > 10 µM; discrimination index [mean ± SEM] (male Long-Evans rats; Scopolamine/0.01 mg/kg p.o.): [50.5 ± 4.3]; discrimination index [mean ± SEM] (male Long-Evans rats; Scopolamine/0.03 mg/kg p.o.): [61.7 ± 2.5]; discrimination index [mean ± SEM] (male Long-Evans rats; Scopolamine/0.1 mg/kg p.o.): [72.9 ± 2.6]###
